Results as given in PubChem BioAssay AID248 (DTP/NCI, 2004).
“And” between values parts separate entries of the source, which are not always exact repeats. Equal values may be shown once. Toxic doses and inconclusive results are not listed. Rule as the data show it: active = T/C of 150% or more; inactive = T/C below 125%.

Test system: L1210 leukemia ip in BDF1 mice, survival T/C
Test: NCI In Vivo Anticancer Drug Screen. Data for tumor model L1210 Leukemia (intraperitoneal) in B6D2F1 (BDF1) mice
Conditions: endpoint: mean survival time, higher = longer survival
Method in brief: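 Survival endpoint. Drug-treated group vs vehicle group, expressed as T divided by C. Tumor passaged by transplantation.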

[1] = dose: 100.0 mg/kg/injection, schedule: Q01DX001 (ip), vehicle: saline
[2] = dose: 200.0 mg/kg/injection, schedule: Q01DX001 (ip), vehicle: saline
[3] = dose: 400.0 mg/kg/injection, schedule: Q01DX001 (ip), vehicle: saline
[4] = dose: 50.0 mg/kg/injection, schedule: Q01DX001 (ip), vehicle: saline
[5] = dose: 50.0 mg/kg/injection, schedule: Q01DX001 (ip), vehicle: Klucel (hydroxypropylcellulose) (HPC)
[6] = dose: 100.0 mg/kg/injection, schedule: Q01DX001 (ip), vehicle: Klucel (hydroxypropylcellulose) (HPC)
[7] = dose: 200.0 mg/kg/injection, schedule: Q01DX001 (ip), vehicle: Klucel (hydroxypropylcellulose) (HPC)
[8] = dose: 100.0 mg/kg/injection, schedule: Q04DX003 (ip), vehicle: Klucel (hydroxypropylcellulose) (HPC)
[9] = dose: 200.0 mg/kg/injection, schedule: Q04DX003 (ip), vehicle: Klucel (hydroxypropylcellulose) (HPC)
[10] = dose: 400.0 mg/kg/injection, schedule: Q04DX003 (ip), vehicle: Klucel (hydroxypropylcellulose) (HPC)

Measured: T/C

O=C(Nc1ccc(Cl)cc1C(F)(F)F)OCCOc1ccc(-c2ccccc2)cc1
inactive: dose: 100.0 mg/kg/injection, schedule: Q01DX009 (ip), vehicle: saline with Tween-80 98 % of control | dose: 200.0 mg/kg/injection, schedule: Q01DX009 (ip), vehicle: saline with Tween-80 96 % of control | dose: 400.0 mg/kg/injection, schedule: Q01DX009 (ip), vehicle: saline with Tween-80 96 % of control

C=CC=O
inactive: dose: 3.0 mg/kg/injection, schedule: Q01DX009 (ip), vehicle: saline 96 % of control | dose: 3.12 mg/kg/injection, schedule: Q01DX009 (ip), vehicle: saline 98 % of control | dose: 3.12 mg/kg/injection, schedule: Q04DX003 (ip), vehicle: saline 91 % of control | dose: 6.0 mg/kg/injection, schedule: Q01DX009 (ip), vehicle: saline 102 % of control | dose: 6.25 mg/kg/injection, schedule: Q01DX009 (ip), vehicle: saline 90 % of control | dose: 6.25 mg/kg/injection, schedule: Q04DX003 (ip), vehicle: saline 97 % of control | dose: 7.5 mg/kg/injection, schedule: Q04DX003 (ip), vehicle: saline 88 % of control | dose: 12.0 mg/kg/injection, schedule: Q01DX009 (ip), vehicle: saline 102 % of control | dose: 12.0 mg/kg/injection, schedule: Q04DX003 (ip), vehicle: Klucel (hydroxypropylcellulose) (HPC) 98 % of control | dose: 12.5 mg/kg/injection, schedule: Q04DX003 (ip), vehicle: saline 89 % of control | dose: 25.0 mg/kg/injection, schedule: Q04DX003 (ip), vehicle: Klucel (hydroxypropylcellulose) (HPC) 101 % of control | [1] 117 % of control | [2] 109 % of control | [3] 98 % of control

N#Cc1ccccc1NC(=S)Nc1ccc([N+](=O)[O-])cc1
inactive: dose: 12.5 mg/kg/injection, schedule: Q01DX009 (ip), vehicle: saline with Tween-80 95 % of control | dose: 25.0 mg/kg/injection, schedule: Q01DX009 (ip), vehicle: saline with Tween-80 100 % of control | dose: 50.0 mg/kg/injection, schedule: Q01DX009 (ip), vehicle: saline with Tween-80 95 % of control and 88 % of control

Cc1ccc(NC(=O)NCCCl)cc1
inactive: dose: 50.0 mg/kg/injection, schedule: Q01DX001 (ip), vehicle: carboxymethylcellulose (CMC) 97 % of control | dose: 100.0 mg/kg/injection, schedule: Q01DX001 (ip), vehicle: carboxymethylcellulose (CMC) 97 % of control | dose: 200.0 mg/kg/injection, schedule: Q01DX001 (ip), vehicle: carboxymethylcellulose (CMC) 113 % of control | dose: 400.0 mg/kg/injection, schedule: Q01DX001 (ip), vehicle: carboxymethylcellulose (CMC) 100 % of control

NC(N)=N/N=C\CC(O)CO (stereo unspecified)
inactive: dose: 15.0 mg/kg/injection, schedule: Q01DX Z (ip), vehicle: methylcellulose (MC) 100 % of control | dose: 30.0 mg/kg/injection, schedule: Q01DX Z (ip), vehicle: methylcellulose (MC) 103 % of control | dose: 60.0 mg/kg/injection, schedule: Q01DX Z (ip), vehicle: methylcellulose (MC) 100 % of control | dose: 60.0 mg/kg/injection, schedule: Q01DX Z (oral), vehicle: methylcellulose (MC) 97 % of control | dose: 120.0 mg/kg/injection, schedule: Q01DX Z (ip), vehicle: methylcellulose (MC) 103 % of control | dose: 120.0 mg/kg/injection, schedule: Q01DX Z (oral), vehicle: methylcellulose (MC) 94 % of control | dose: 240.0 mg/kg/injection, schedule: Q01DX Z (oral), vehicle: methylcellulose (MC) 88 % of control | dose: 480.0 mg/kg/injection, schedule: Q01DX Z (oral), vehicle: methylcellulose (MC) 86 % of control

O=C1CCCC(=O)NNC(=O)NCCCCCCNC(=O)NN1
inactive: [4] 102 % of control | [1] 87 % of control | [2] 87 % of control | [3] 96 % of control

Nn1nnc2ccccc21
inactive: [1] 95 % of control | [2] 97 % of control | [3] 97 % of control

CC#CC(O)(C(=O)OCC)C1CCCCC1 (stereo unspecified)
inactive: [1] 96 % of control | [2] 113 % of control | [3] 100 % of control

CCCCOP(=O)(OCCCC)Oc1ccc2ccccc2c1
inactive: dose: 50.0 mg/kg/injection, schedule: Q01DX009 (ip), vehicle: other 97 % of control and 88 % of control | dose: 100.0 mg/kg/injection, schedule: Q01DX009 (ip), vehicle: other 94 % of control | dose: 100.0 mg/kg/injection, schedule: Q04DX002 (ip), vehicle: other 94 % of control and 96 % of control | dose: 100.0 mg/kg/injection, schedule: Q04DX003 (ip), vehicle: carboxymethylcellulose (CMC) 102 % of control | dose: 200.0 mg/kg/injection, schedule: Q01DX009 (ip), vehicle: other 100 % of control and 102 % of control | dose: 200.0 mg/kg/injection, schedule: Q04DX002 (ip), vehicle: other 96 % of control and 92 % of control | dose: 200.0 mg/kg/injection, schedule: Q04DX003 (ip), vehicle: carboxymethylcellulose (CMC) 100 % of control | dose: 400.0 mg/kg/injection, schedule: Q04DX002 (ip), vehicle: other 94 % of control and 96 % of control | dose: 400.0 mg/kg/injection, schedule: Q04DX003 (ip), vehicle: carboxymethylcellulose (CMC) 97 % of control

Cc1cccc(OS(C)(=O)=O)c1N(S(C)(=O)=O)S(C)(=O)=O
inactive: [5] 97 % of control | [6] 108 % of control | [7] 95 % of control | dose: 400.0 mg/kg/injection, schedule: Q01DX001 (ip), vehicle: Klucel (hydroxypropylcellulose) (HPC) 95 % of control

CC1(C)Cc2ccccc2C(c2nccc3ccccc23)=N1
inactive: [8] 106 % of control | [9] 118 % of control | [10] 102 % of control

CCOC(=O)CCc1c(COC(C)=O)[nH]c(C(=O)OCC)c1C
inactive: [5] 100 % of control | [6] 92 % of control | [7] 90 % of control

CCCCCCCCCCCC(=O)Nc1cc(Cl)c(OC)cc1OC
inactive: dose: 100.0 mg/kg/injection, schedule: Q01DX009 (ip), vehicle: Klucel (hydroxypropylcellulose) (HPC) 95 % of control | dose: 200.0 mg/kg/injection, schedule: Q01DX009 (ip), vehicle: Klucel (hydroxypropylcellulose) (HPC) 92 % of control | dose: 400.0 mg/kg/injection, schedule: Q01DX009 (ip), vehicle: Klucel (hydroxypropylcellulose) (HPC) 93 % of control

Cc1cn([C@@H]2C[C@H](CO)[C@@H](O)C2)c(=O)[nH]c1=O
inactive: [1] 105 % of control | [2] 110 % of control | [3] 107 % of control

CC[N+]1(CC)CC[N+](CC)(CC)CC1 (tested in a mixture with another compound)
inactive: dose: 100.0 mg/kg/injection, schedule: Q04DX002 (ip), vehicle: saline 102 % of control | dose: 200.0 mg/kg/injection, schedule: Q04DX002 (ip), vehicle: saline 97 % of control | dose: 400.0 mg/kg/injection, schedule: Q04DX002 (ip), vehicle: saline 102 % of control

NC(=O)c1nnn(Cc2ccccc2)c1C(N)=O
inactive: dose: 100.0 mg/kg/injection, schedule: Q04DX002 (ip), vehicle: Klucel (hydroxypropylcellulose) (HPC) 104 % of control | dose: 200.0 mg/kg/injection, schedule: Q04DX002 (ip), vehicle: Klucel (hydroxypropylcellulose) (HPC) 96 % of control | dose: 400.0 mg/kg/injection, schedule: Q04DX002 (ip), vehicle: Klucel (hydroxypropylcellulose) (HPC) 101 % of control

NC(=O)/C(=C\c1ccc(N=Nc2ccc(/C=C(\C(N)=O)c3cccc4ccccc34)cc2)cc1)c1cccc2ccccc12
inactive: [8] 93 % of control | [9] 99 % of control | [10] 89 % of control

NNC(=O)c1ncn(C2OC(CO)C(O)C2O)c1C(=O)NN (stereo unspecified)
inactive: [4] 102 % of control | [1] 98 % of control | [2] 102 % of control | [3] 98 % of control

C[N+](C)(C)c1ccc(N=Nc2ccccn2)cc1
inactive: [4] 113 % of control
